Data on one compound can be found in ChEMBL document CHEMBL1201862, “PubChem BioAssay data set” (2004).

The target of assay [1] is T1, Sentrin-specific protease 7 (Homo sapiens, UniProt Q9BQF6).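 Also: Luminescence-based dose-response confirmation of ultra-high-throughput screening hits, measuring inhibition of SENP7.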
T1 sequence (Q9BQF6 whole entry): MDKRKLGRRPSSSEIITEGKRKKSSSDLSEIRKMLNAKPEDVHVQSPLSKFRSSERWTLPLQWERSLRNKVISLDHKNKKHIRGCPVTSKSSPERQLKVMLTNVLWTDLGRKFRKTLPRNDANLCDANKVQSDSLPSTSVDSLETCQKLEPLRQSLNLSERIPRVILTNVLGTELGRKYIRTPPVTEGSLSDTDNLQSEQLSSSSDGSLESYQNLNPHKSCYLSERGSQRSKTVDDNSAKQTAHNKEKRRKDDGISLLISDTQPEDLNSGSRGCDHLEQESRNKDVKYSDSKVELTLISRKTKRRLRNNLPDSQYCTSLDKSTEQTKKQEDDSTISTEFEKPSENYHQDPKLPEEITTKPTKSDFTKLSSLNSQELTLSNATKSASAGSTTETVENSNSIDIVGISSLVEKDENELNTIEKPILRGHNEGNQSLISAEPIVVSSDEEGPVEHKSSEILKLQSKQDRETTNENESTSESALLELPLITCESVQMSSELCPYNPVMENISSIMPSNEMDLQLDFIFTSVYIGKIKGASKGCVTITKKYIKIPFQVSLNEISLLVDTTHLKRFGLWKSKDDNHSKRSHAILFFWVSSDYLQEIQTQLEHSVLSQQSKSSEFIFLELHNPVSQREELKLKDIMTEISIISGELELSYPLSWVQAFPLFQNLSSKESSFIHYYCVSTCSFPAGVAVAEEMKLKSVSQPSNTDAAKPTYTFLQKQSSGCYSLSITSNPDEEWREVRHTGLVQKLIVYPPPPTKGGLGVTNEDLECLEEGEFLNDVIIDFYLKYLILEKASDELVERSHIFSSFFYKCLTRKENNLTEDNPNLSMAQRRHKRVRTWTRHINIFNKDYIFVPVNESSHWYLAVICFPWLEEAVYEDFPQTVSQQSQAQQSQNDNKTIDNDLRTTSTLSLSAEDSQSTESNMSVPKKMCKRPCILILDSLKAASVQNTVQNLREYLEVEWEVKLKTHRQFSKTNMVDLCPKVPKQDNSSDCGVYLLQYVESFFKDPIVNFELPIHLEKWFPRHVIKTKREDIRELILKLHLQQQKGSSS
In kind it is functional.

For assay [2], the target named is Ras and Rab interactor 1/Tyrosine-protein kinase ABL1 (Homo sapiens, UniProt P00519+Q13671). In kind it is functional.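 Also: biochemical TR-FRET dose-response test measuring inhibition of binding between Rin1 and Abl proteins.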
Chain of Ras and Rab interactor 1/Tyrosine-protein kinase ABL1 (P00519 whole entry): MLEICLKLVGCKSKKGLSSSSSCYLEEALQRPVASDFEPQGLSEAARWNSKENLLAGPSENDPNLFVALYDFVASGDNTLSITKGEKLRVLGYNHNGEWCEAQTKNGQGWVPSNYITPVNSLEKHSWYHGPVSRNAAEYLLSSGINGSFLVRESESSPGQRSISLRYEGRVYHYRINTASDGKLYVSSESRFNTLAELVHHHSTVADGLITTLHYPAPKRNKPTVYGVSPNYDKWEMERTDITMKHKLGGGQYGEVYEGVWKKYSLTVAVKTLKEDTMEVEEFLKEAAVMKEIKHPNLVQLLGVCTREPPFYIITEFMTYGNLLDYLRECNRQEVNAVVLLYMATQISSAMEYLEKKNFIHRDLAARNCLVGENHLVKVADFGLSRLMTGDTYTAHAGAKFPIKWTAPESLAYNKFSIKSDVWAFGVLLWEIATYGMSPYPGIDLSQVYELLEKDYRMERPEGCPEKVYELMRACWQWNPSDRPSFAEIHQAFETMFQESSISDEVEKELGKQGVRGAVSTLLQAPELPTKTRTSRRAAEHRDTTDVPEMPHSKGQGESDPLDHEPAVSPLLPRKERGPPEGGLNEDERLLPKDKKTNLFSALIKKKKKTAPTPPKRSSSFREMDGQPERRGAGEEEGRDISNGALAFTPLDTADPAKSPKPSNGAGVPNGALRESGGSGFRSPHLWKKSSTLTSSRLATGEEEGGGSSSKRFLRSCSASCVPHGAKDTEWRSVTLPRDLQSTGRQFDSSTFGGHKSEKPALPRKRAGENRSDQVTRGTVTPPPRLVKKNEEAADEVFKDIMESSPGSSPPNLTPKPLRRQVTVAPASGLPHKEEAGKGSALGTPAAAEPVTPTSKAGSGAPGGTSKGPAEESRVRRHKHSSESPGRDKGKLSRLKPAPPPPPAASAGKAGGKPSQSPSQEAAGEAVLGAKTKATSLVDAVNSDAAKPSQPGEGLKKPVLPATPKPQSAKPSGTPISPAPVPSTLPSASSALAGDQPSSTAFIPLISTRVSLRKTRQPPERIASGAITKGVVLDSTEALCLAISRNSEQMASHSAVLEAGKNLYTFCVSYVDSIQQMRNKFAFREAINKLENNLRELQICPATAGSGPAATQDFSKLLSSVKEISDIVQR
Chain of Ras and Rab interactor 1/Tyrosine-protein kinase ABL1 (Q13671 whole entry): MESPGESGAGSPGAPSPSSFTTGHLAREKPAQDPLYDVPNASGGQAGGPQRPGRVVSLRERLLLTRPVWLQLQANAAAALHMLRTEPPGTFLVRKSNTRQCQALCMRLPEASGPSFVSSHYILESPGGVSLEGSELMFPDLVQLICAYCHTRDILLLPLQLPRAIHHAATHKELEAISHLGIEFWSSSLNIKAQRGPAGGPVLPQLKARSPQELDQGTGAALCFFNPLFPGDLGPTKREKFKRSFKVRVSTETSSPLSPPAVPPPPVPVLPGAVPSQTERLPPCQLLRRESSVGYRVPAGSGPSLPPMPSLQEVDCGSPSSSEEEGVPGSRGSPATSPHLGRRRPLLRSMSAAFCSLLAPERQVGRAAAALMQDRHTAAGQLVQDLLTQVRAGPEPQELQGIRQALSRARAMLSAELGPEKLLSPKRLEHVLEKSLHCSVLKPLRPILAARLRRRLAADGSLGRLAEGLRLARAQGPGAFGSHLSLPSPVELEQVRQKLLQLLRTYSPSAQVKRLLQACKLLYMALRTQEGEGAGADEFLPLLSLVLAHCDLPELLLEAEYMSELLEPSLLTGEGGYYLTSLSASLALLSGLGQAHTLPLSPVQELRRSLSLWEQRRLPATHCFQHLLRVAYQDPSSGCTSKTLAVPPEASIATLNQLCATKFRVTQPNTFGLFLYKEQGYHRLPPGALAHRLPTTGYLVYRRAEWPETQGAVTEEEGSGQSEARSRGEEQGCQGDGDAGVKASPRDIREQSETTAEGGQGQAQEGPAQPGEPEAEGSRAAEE
Assay [3] has as its target Tyrosyl-DNA phosphodiesterase 2 (Homo sapiens, UniProt O95551). As to the kind of experiment: human TDP2 enzyme inhibitors, dose response, biochemical, epi absorbance, IC50 (AID 743297).
In assay [4] the target is T2, Replicative DNA helicase DnaB (Mycobacterium tuberculosis, UniProt P9WMR3).
T2 sequence (P9WMR3 whole entry): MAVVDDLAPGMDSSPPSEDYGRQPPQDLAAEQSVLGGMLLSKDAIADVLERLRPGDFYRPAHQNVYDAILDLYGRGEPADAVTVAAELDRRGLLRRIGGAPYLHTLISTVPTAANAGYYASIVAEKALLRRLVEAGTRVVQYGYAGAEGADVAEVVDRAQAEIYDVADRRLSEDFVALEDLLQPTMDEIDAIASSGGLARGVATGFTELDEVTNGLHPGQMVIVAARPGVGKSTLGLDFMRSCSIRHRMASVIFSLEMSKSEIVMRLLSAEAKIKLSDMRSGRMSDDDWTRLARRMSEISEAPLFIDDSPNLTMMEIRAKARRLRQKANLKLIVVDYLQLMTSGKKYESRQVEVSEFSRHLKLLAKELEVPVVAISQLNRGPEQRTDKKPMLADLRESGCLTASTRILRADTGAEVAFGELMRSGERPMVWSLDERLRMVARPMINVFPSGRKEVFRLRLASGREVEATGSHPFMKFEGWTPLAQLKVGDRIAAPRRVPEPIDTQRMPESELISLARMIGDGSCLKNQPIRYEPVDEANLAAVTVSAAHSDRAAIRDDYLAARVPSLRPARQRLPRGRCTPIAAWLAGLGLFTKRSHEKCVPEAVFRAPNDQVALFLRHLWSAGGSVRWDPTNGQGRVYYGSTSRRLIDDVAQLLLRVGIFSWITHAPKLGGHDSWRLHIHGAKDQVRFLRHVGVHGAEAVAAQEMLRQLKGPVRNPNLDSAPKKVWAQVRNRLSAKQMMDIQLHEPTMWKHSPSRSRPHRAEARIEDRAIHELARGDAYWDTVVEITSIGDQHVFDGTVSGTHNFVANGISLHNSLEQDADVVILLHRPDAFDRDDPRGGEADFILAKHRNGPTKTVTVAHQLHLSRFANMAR
As to the kind of experiment: DnaB intein splicing inhibitors, dose response, biochemical, cell-free fluorescence (AID 449749). In kind it is functional.

The next assay has as its target T3, Protein RecA (Mycobacterium tuberculosis, UniProt P9WHJ3).
T3 sequence (P9WHJ3 whole entry): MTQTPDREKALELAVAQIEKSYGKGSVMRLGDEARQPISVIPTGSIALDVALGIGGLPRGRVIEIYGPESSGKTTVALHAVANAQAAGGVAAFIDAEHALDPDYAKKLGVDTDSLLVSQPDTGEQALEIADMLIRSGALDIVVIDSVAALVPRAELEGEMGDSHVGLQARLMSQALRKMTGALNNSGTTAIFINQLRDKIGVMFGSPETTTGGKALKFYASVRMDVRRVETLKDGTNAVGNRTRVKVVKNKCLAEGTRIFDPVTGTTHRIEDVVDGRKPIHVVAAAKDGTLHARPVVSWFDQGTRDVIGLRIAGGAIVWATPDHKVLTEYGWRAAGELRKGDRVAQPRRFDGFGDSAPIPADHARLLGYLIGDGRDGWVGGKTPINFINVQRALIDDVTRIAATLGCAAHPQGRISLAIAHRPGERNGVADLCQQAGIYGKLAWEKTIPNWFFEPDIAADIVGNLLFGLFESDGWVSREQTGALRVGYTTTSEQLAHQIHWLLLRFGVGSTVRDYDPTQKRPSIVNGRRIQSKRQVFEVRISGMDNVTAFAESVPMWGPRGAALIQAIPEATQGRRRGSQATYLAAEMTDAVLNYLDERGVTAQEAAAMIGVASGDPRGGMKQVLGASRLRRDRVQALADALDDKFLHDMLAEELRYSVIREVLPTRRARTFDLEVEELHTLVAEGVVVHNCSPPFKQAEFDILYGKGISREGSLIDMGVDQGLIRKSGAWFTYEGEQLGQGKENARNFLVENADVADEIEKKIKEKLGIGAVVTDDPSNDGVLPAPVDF
As to the kind of experiment: Fluorescence Cell-Free Homogeneous Dose Retest to Identify Inhibitors of RecA-Intein Splicing Activity. [Related pubchem assays (depositor defined):AID2097, AID2223, AID489010, AID492950]. In kind it is functional.

The source made the active and inactive calls.

Chain of Tyrosyl-DNA phosphodiesterase 2 (O95551 whole entry): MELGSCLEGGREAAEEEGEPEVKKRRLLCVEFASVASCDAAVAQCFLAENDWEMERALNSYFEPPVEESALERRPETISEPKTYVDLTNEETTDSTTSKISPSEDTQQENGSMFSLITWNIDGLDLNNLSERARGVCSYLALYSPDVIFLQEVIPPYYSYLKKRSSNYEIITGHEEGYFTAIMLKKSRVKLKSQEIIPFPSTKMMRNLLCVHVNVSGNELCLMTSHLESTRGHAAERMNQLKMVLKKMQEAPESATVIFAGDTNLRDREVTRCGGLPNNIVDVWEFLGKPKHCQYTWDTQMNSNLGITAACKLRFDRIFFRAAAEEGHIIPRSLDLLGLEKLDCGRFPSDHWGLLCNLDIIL

Regarding `O=C(NN=c1c(=O)c2ccccc2c1=O)c1ccccc1`, the IC50 is 10.7 µM (active) in assay [1], > 73.5 µM (inactive) in assay [2] and 5.36 µM (active) in assay [3]. For the same compound, the AC50 in assay [4] was 3.42 µM (active). Besides, at Protein RecA, the EC50 was 4.83 µM (active).
